Results taken from article PMC5428058, “Local delivery of novel MRTF/SRF inhibitors prevents scar tissue formation in a preclinical model of fibrosis” (Scientific Reports, 2017).

Tests used:
[1] = system: αSMA protein in human conjunctival fibroblasts; test: Western blot of αSMA protein expression; type: cell-based; settings: 10 or 25 μM, 48 hours
Procedure: Human conjunctival fibroblasts were lysed using 2x SDS sample buffer (100 mM Tris HCL ph6.8, 4% SDS, 20% glycerol, 200 mM dithiothreitol, 0.2% bromophenol blue). Equal amounts of protein were loaded onto and run on 4–12% NuPAGE Bis-Tris protein gels (Novex, Life Technologies). The gels were transferred onto nitrocellulose blotting membranes (Amersham, Life Sciences), and blocked in 3% non-fat milk in PBST (PBS 0.1% Tween) for 1 hour. The membranes were then incubated overnight at 4 °C in αSMA primary antibody (1:200, polyclonal rabbit, ab5694, Abcam). The next day, the membranes were washed three times for 10 minutes in PBST, and incubated for 1 hour at room temperature in anti-rabbit HRP (1:2500, Dako). The membranes were then washed three times for 10 minutes in PBST, treated with ECL solution (Amersham, Life sciences) for 5 minutes, and scanned on an Odyssey IR Imager (LI-COR).

[2] = system: rabbit conjunctival fibroblasts; test: fibroblast-populated collagen contraction assay (rabbit); type: cell-based; settings: 7 days
Procedure: We screened two candidate MRTF/SRF pathway inhibitors, CCG-222740 and CCG-203971, using detached three-dimensional fibroblast-populated collagen gels[56], [57]. Human or rabbit conjunctival fibroblasts were seeded in a collagen Type I matrix (First Link UK Ltd, Birmingham, UK) at a concentration of 0.7 × 10^4 cells/ml. The fibroblast-populated collagen gel mixture was cast into the wells of MatTek dishes (MatTek Corp, MI, USA). The gels were detached from the edges of the well and 2 ml of growth medium were added to each well with 5, 25, 50, 75, or 100 μM of CCG-222740 or CCG-203971 or 0.1% DMSO control. Digital photographs were obtained daily and lattice areas were measured using Image J software (http://rsb.info.nih.gov/ij/). The gel size at day 7 was assessed as a percentage of lattice area on day 0. Each experiment was performed as triplicate gels per condition and the experiment was repeated on three separate days.

O=C(Nc1ccc(Cl)cc1)C1CN(C(=O)c2cccc(-c3ccco3)c2)CC(F)(F)C1 (centres unmarked) [CCG-222740]
αSMA protein expression, comparison [1]: more potent than CCG-203971 at decreasing αSMA protein expression
decrease of collagen matrix contraction, comparison [2]: more effective at decreasing collagen matrix contraction than CCG-203971
